Tests used:
A549 cells [1] = experiment: Cell growth inhibition by MTT assay; type: cell-based, human
Description: 2. Cell Growth Inhibition by ^127I-CLR1401. • 1) Growth inhibition induced by ^127I-CLR1401 was determined by MTT(3-(4,5-dimethylthiazol-2-yl)-2,5-diphenyl […] bromide) assay. MTT is a pale yellow substrate that is cleaved by living cells to yield a dark blue formazan product.
Briefly, A549 cells were plated at a density of 200,000 cells per well in a six well plate and allowed to adhere overnight.
The cells were then treated with varying concentrations of ^127I-CLR1401 (0.0078, 0.392, 0.784, 1.568, 3.137, 4.705, 7.84, 39.2, 78.4 μM) in triplicate and then collected for the MTT assay at the indicated time points. Cells were then incubated with 0.5 mg/ml MTT in 1×PBS for 3 hours at 37° C. with 5% CO2 in air.
Absorbance was measured at 540 nm using a Synergy HT microplate reader. The absorbance value at 540 nm is directly proportional to the number of viable cells present.

active Akt (pAkt, S473) [2] = experiment: Inhibition of Akt activation (pAkt Ser473 sandwich ELISA) in A549 cells; type: cell-based; conditions: Homo sapiens
Description: A549 cells, obtained from American Type Culture Collection (ATCC), are a human non-small cell lung cancer cell line. A549 cells have wild-type functional PTEN.
(§1) A549 and PC-3 cells were plated at a density of 200,000 cells per ml.
(§2) All treatments were preformed in triplicate.
(§3) A549 and PC-3 cells are treated with ^127I-CLR1401 for 24 hours. • 0, 3, 5, 10 μM of ^127I-CLR1401 • Protein was isolated from treated cells. • The level of activated Akt was determined by examining the phosphorylated (active) form at Ser473 by enzyme linked immunosorbent assay (ELISA). • PathScan Phospho-Akt1 (Ser473) Sandwich ELISA Kit (Cell Signaling #7160). • ELISA controls: • Negative Control: A549 and PC-3 cells treated with 50 μM LY294,002 for 24 hrs. LY294,002 is a specific cell permeable phosphatidylinositol 3-kinase (PI3K) inhibitor that inhibits the activation of Akt by affecting the amount of phosphatidylinositol(3,4,5) trisphosphate produced by PI3K. • Positive Control: A549 and PC-3 cells stimulated with 10 μg/ml Insulin for 24 hrs. • Negative Control: A549 in serum free media. • 1) The ELISA was preformed per the manufacturer's instructions. Briefly, 100 μg of protein from the cell lysates were incubated in the pre-coated 96-well plate overnight at 4° C. The wells were then washed 4 times with 1XWash Buffer (also provided). Then incubated with the primary Akt antibody for 2 hours at 37° C. with 5% CO2 in air. After the primary incubation the plate was then washed 4 times with 1XWash Buffer and incubated with the HRP-linked secondary antibody for 1 hour at 37° C. with 5% CO2 in air. The plate was then washed 4 times with 1× Wash Buffer and developed using the TMB substrate provided. TMB substrate (tetramethylbenzidine) is a colormetric substrate used in the ELISA assay. TMB (3,3″,5,5″-tetramethylbenzidine) is a chromogen that yields a blue color when oxidized with hydrogen peroxide (catalyzed by HRP) with major absorbances at 370 nm and 652 nm. The color then changes to yellow with the addition of sulfuric or phosphoric acid with maximum absorbance at 450 nm. it is used for the detection of target proteins that have been bound to an antibody that contains a Horseradish Peroxidase tag. • After the 10 minute incubation at 37° C. the reaction was stopped by the addition of stop buffer (also provided). The absorbance was then measured at 450 nm using a Synergy HT microplate reader (BioTek). Data are reported as absorbance at 450 nm.

active Akt (pAkt, S473) [3] = experiment: Inhibition of Akt activation (pAkt Ser473 sandwich ELISA) in PC-3 cells; type: cell-based; conditions: Homo sapiens
Description: PC-3 cells, obtained from American Type Culture Collection (ATCC), are a human prostate carcinoma cell line. PC-3 cells have a homozygous deletion of PTEN.
as §1, §2, §3

A549 cells [4] = experiment: Uptake and Retention Assay of 125I-CLR1404; type: cell-based, human; conditions: 24 hours, 0.588-2.156 μM, serum free media
Description: The Uptake and Retention Assay was preformed as described previously. Briefly, A549 human NSCLC cells were plated at a density of 150,000 cells/ml in 6-well plates.
Cells were then allowed to adhere overnight. All plates were then treated with the indicated mass of either ^125I-CLR1404 with or without ^127I-CLR1401 as indicated by the experimental parameters.
Cells were incubated in the presence of drug for 24 hrs prior to collection. At 24 hrs post treatment, the media was removed and the cells were washed once with 1 ml of ice cold 1×PBS+1% BSA. The cells were then removed from the plate by trypsinization with 1 ml of 1× Trypsin 1×PBS solution and split into 2 samples of 500 μl each. Both sets of sample were pelleted by centrifugation for 30 seconds at 2000×g at room temperature. The supernatant was removed and discarded.
One pellet for each sample set was resuspended in 200 μl of 1×PBS (Tube 1, Sample 1), and the other pellet was resuspened in 100% EtOH (Tube 2, Sample 1). A 100 μl sample from Tube 1 was taken for evaluation of DNA content in order to determine cell number (data was generated using absorbance at 260 nm in a microplate reader). A 10 μl sample from Tube 2 was taken for evaluation of radioactivity content using a gamma counter. […] All treatments were preformed in Serum Free media. […]

[5] = 3 μM, 24 hours, read-out: Percent Inhibition of Akt
[6] = 5 μM, 24 hours, read-out: Percent Inhibition of Akt
[7] = 10 μM, 24 hours, read-out: Percent Inhibition of Akt

| IC50 (A549 cells [1]; Homo sapiens, A549 cells, MTT, read-out: 50% inhibitory concentration for cell growth) | IC50 (active Akt (pAkt, S473) [2]) | IC50 (active Akt (pAkt, S473) [3]) | Molecule | effect on the growth of A549 cells (A549 cells [1]; low doses, FIG. 5A) | inhibition at 3 µM (active Akt (pAkt, S473) [2]; [5]) | inhibition at 5 µM (active Akt (pAkt, S473) [2]; [6]) | inhibition at 10 µM (active Akt (pAkt, S473) [2]; [7]) | inhibition at 3 µM (active Akt (pAkt, S473) [3]; [5]) | inhibition at 5 µM (active Akt (pAkt, S473) [3]; [6]) | inhibition at 10 µM (active Akt (pAkt, S473) [3]; [7]) | uptake and retention of 125I-CLR1404 with increasing mass dose of 125I-CLR1404 (A549 cells [4]) |
| --- | --- | --- | --- | --- | --- | --- | --- | --- | --- | --- | --- |
| 4.5 µM | 5.9 µM | 5 µM | C[N+](C)(C)CCOP(=O)([O-])OCCCCCCCCCCCCCCCCCCc1ccc(I)cc1 [^127I-CLR1401, 18-(p-Iodophenyl)octadecyl phosphocholine] | no significant effect | 26% | 42% | 85% | 21% | 61% | 97% |  |
|  |  |  | 18-(p-Iodophenyl)octadecyl phosphocholine [^125I-CLR1404] |  |  |  |  |  |  |  | distinct increase in the amount of compound taken up and retained |
